Laboratory results published in ChEMBL document CHEMBL4043066, “Drug Discovery Targeting Bromodomain-Containing Protein 4” (J Med Chem, 2017).

Columns and labels:
[1] = tested on: MX1; assay: Antiproliferative activity against human MX1 cells after 72 hrs by CellTiter-Glo assay; format: functional, cell-based; settings: MX1, 72 h
[2] = biological target: T1, Bromodomain-containing protein 4 (Homo sapiens, UniProt O60885); assay: Inhibition of recombinant His-tagged BRD4 (unknown origin) using biotinylated acetyl-histone H4 as substrate by AlphaLisa assay
[3] = organism: Mus musculus; assay: Antiinflammatory activity in CD1 mouse assessed as inhibition of LPS-induced IL-6 production pretreated for 1 hr followed by LPS stimulation after 2 hrs by immunoassay relative to control; format: functional
[4] = tested on: MV4-11; assay: Downregulation of BRD4 in human MV4-11 cells at 100 nM after 18 hrs by immunoblot analysis relative to control; format: functional
[5] = tested on: MV4-11; assay: Antiproliferative activity against human MV4-11 cells after 72 hrs by alamarBlue assay; format: functional, cell-based; settings: MV4-11, 72 h
[6] = biological target: T1, Bromodomain-containing protein 4; assay: Inhibition of His-tagged BRD4 (unknown origin) using acetyl-histone H4 as substrate after 35 mins by TR-FRET assay
[7] = biological target: CREB-binding protein (Homo sapiens, UniProt Q92793); assay: Inhibition of His-tagged CREBP (unknown origin) using acetyl-histone H4 as substrate after 35 mins by AlphaScreen assay
[8] = tested on: MV4-11; assay: Antiproliferative activity against human MV4-11 cells after 4 days by CellTiter-Glo assay; format: functional, cell-based; settings: MV4-11, 96 h
[9] = biological target: Bromodomain-containing protein 4 (Homo sapiens, UniProt O60885, Y390A); assay: Inhibition of recombinant human N-terminal His6-tagged BRD4 bromodomain 2 (1 to 477 residues) Y390A mutant after 30 mins in dark by TR-FRET assay
[10] = tested on: Bromodomain-containing protein 4 (Homo sapiens), O60885 [UNDEFINED MUTATION]; assay: Selectivity ratio of IC50 for recombinant human N-terminal His6-tagged BRD4 bromodomain 1 (1 to 477 residues) Y97A mutant to IC50 for recombinant human N-terminal His6-tagged BRD4 bromodomain 2 (1 to 477 residues) Y390A mutant
[11] = biological target: T1, Bromodomain-containing protein 4; assay: Inhibition of BRD4 bromodomain 1 (unknown origin) using biotinylated substrate after 1 hr by AlphaLisa assay
[12] = biological target: T1, Bromodomain-containing protein 4; assay: Inhibition of biotin-labeled acetylated peptide binding to BRD4 bromodomain 1 (unknown origin) expressed in Escherichia coli BL21 after 1 hr by BROMOscan assay
[13] = biological target: T1, Bromodomain-containing protein 4; assay: Inhibition of GST-tagged BRD4 (unknown origin) using biotinylated acetyl-histone H4 peptide as substrate after 30 mins by AlphaScreen assay
[14] = tested on: MV4-11; assay: Antiproliferative activity against human MV4-11 cells; format: functional, cell-based
[15] = tested on: MX1; assay: Antiproliferative activity against human MX1 cells incubated for >= 72 hrs by CellTiter-Glo assay; format: functional, cell-based; settings: MX1, 72 h
[16] = tested on: MV4-11; assay: Antitumor activity against human MV4-11 cells harboring MLL-AF4 xenografted in mouse assessed as tumor growth inhibition at 1 mg/kg, po qd up to 28 days relative to control; format: functional; settings: MV4-11, po, 672 h, read-out: TGI
[17] = biological target: T1, Bromodomain-containing protein 4
Description: Displacement of Halo-tagged histone H3.3 from NanoLuc-tagged full length BRD4 (unknown origin) expressed in HCT116 cells after 18 hrs by NanoBRET assay

[18] = biological target: T1, Bromodomain-containing protein 4; remark: listed apart in the source
Description: Displacement of Halo-tagged histone H3.3 from N-terminal NanoLuc-tagged BRD4 bromodomain 1 (44 to 168 residues) (unknown origin) expressed in HCT116 cells after 18 hrs by NanoBRET assay

[19] = tested on: MX1; assay: Antitumor activity against human MX1 cells xenografted subcutaneously in SCID mouse assessed as tumor growth inhibition at 100 mg/kg, po after day 17 relative to control; format: functional; settings: MX1, 408 h, read-out: TGI
[20] = biological target: T1, Bromodomain-containing protein 4; assay: Inhibition of recombinant human N-terminal His6-tagged BRD4 bromodomain 1 expressed in Escherichia coli BL21(DE3) using biotinylated histone peptide as substrate after 60 mins by TR-FRET assay
[21] = Antitumor activity against human JJN3R cells xenografted subcutaneously in mouse assessed as tumor growth inhibition at 1 mg/kg, po relative to control; format: functional; settings: JJN-3R, read-out: TGI
[22] = biological target: T1, Bromodomain-containing protein 4; assay: Inhibition of recombinant His-tagged BRD4 bromodomain 1 (K57 to E168 residues) (unknown origin) after 1 hr by TR-FRET assay
[23] = biological target: T1, Bromodomain-containing protein 4; assay: Inhibition of recombinant His-tagged BRD4 bromodomain 2 (E352 to E168 residues) (unknown origin) after 1 hr by TR-FRET assay
[24] = biological target: T1, Bromodomain-containing protein 4; assay: Inhibition of His-epitope tagged BRD4 bromodomain 1 (44 to 168 residues) (unknown origin) using biotinylated histone H4 as substrate after 1 hr by AlphaScreen assay
[25] = biological target: T1, Bromodomain-containing protein 4; assay: Inhibition of His-epitope tagged BRD4 bromodomain 2 (333 to 460 residues) (unknown origin) using biotinylated histone H4 as substrate after 1 hr by AlphaScreen assay
[26] = tested on: NCI-H187; assay: Antitumor activity against human NCI-H187 cells xenografted subcutaneously in mouse assessed as tumor growth inhibition at 5 mg/kg, po relative to control; format: functional; settings: read-out: TGI
[27] = biological target: T1, Bromodomain-containing protein 4; assay: Inhibition of GST-tagged BRD4 bromodomain 1 (44 to 168 residues) (unknown origin) using biotinylated acetyl-histone H4 peptide as substrate after 30 mins in dark by AlphaScreen assay
[28] = biological target: T1, Bromodomain-containing protein 4; assay: Inhibition of His-tagged BRD4 bromodomain 1 (K57 to E168 residues) (unknown origin) after 1 hr by TR-FRET assay

Sequence of CREB-binding protein (Q92793 whole entry): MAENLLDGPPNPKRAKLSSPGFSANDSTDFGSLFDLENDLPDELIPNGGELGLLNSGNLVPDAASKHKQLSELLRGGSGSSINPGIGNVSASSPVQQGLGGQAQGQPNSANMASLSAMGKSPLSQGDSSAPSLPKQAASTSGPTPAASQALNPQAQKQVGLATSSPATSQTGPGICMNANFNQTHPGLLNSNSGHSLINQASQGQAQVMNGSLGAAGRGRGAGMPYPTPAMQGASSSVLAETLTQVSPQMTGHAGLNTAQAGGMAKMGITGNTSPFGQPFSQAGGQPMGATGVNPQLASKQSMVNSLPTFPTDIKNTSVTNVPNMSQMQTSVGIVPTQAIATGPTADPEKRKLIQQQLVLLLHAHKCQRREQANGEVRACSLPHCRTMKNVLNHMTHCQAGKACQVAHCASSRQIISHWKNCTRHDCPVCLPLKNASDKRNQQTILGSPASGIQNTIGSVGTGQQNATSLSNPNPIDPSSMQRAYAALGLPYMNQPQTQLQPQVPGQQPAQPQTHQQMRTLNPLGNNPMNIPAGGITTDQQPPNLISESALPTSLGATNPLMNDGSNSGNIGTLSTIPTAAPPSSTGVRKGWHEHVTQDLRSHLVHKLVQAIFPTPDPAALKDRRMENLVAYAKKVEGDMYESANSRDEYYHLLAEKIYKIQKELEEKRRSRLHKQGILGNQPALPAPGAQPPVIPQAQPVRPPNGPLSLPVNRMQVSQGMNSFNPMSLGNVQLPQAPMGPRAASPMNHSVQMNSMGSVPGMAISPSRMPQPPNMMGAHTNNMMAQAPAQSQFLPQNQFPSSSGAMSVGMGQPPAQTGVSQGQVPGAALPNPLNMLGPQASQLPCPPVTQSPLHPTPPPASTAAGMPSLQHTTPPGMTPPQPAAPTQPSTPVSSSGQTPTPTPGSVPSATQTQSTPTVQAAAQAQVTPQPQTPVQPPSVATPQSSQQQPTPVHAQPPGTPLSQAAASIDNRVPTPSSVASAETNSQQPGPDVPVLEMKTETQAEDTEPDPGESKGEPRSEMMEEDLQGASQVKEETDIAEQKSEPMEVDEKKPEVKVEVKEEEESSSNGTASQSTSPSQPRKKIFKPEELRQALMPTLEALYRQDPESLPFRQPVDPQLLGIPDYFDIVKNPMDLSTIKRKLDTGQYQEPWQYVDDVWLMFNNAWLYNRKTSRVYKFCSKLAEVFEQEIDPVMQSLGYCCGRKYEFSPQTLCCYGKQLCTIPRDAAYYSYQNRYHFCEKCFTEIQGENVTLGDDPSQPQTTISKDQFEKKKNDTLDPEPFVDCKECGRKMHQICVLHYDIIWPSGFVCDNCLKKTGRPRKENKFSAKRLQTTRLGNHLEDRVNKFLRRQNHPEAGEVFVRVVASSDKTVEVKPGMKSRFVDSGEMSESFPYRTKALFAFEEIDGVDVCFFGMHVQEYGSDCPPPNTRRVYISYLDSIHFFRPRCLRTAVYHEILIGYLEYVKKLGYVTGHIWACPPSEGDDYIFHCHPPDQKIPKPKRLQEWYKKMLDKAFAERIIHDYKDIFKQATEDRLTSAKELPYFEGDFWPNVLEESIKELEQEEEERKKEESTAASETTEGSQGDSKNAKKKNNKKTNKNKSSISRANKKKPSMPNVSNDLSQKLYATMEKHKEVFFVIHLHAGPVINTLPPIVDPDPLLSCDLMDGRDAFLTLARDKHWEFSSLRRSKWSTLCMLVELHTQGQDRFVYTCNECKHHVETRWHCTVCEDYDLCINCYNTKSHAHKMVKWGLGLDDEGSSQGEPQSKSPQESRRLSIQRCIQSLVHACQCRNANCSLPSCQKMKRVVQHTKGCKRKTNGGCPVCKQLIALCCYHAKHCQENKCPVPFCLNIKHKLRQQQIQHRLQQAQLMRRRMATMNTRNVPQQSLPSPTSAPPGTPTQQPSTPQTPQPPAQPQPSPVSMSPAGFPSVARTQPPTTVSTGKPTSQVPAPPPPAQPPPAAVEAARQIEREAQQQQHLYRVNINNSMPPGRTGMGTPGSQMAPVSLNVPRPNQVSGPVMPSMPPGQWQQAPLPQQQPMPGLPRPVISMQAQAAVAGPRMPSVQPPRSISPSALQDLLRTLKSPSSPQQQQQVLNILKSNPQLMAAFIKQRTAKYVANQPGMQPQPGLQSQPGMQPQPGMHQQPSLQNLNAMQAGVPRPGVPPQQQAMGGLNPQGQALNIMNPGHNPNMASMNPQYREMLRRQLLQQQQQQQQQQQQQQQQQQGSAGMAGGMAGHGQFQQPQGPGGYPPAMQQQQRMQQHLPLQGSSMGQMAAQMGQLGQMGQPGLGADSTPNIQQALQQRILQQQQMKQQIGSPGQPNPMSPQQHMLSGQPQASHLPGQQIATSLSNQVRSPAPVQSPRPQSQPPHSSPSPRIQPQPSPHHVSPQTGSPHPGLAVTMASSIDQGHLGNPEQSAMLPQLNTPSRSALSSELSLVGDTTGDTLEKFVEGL

CCS(=O)(=O)c1ccc2c(c1)-c1cn(C)c(=O)cc1OCCCCc1cc(Cl)ccc1O2
EC50 [1]: 5.7 nM
IC50 [2]: 0.93 nM
inhibition (INH) [3]: 83%

Cc1sc2c(c1C)C(c1ccc(Cl)cc1)=N[C@@H](CC(=O)NCCCCNC(=O)COc1cccc3c1C(=O)N(C1CCC(=O)NC1=O)C3=O)c1nnc(C)n1-2 (stereo partly specified)
Activity [4]: >80%

CNC(=O)N1N=C(c2ccc(N3CC4(CCS4(=O)=O)C3)cc2)c2cc(OC(F)(F)F)ccc2C[C@@H]1C
IC50 [5]: 30 nM

Cc1nn(C2CC2)c2c1[C@@H](c1ccc(Cl)cc1)N(c1cc(C)c3nnc(C)n3n1)C2=O
IC50 [6]: < 11 nM
IC50 [7]: 3700 nM
IC50 [8]: 3.4 nM

CC(=O)N1c2ccc(C#N)cc2[C@H](Nc2ncccc2F)[C@@H](C)[C@@H]1C1CC1
IC50 [9]: < 100 nM
Ratio IC50 [10]: 100

CCNC(=O)CC1N=C(c2c(F)cccc2F)c2cc(OC)ccc2-c2cn(C)c(=O)cc21 (stereo unspecified)
EC50 [5]: 13 nM
IC50 [11]: < 0.5 nM

CNC(=O)N1N=C(c2ccc(N3CC4(CCS4(=O)=O)C3)cc2)c2cc(-n3nc(C)cc3C)ccc2C[C@@H]1C
IC50 [5]: 80 nM

Cc1sc2c(c1C)C(c1ccc(Cl)cc1)=N[C@@H](CC(=O)OCCCCCCO)c1nnc(C)n1-2
Kd [12]: 0.43 nM

Cc1noc(C)c1-c1ccc2c(c1)C(c1ccccc1)N(C)C(=O)N2 (stereo unspecified)
IC50 [13]: 27 nM

Cc1sc2c(c1C)C(c1ccc(Cl)cc1)=N[C@@H](CC(=O)OC(C)(C)C)c1nnc(C)n1-2
IC50 [14]: 72 nM

CCS(=O)(=O)Nc1cc(-c2cn(C)c(=O)c3[nH]ccc23)c(Oc2ccc(F)cc2F)cc1CN1CCOCC1
EC50 [15]: 16 nM

COc1nnc2ccc(N3CCC(c4ccc(OCCN5CCN(C)C(=O)[C@H]5C)cc4)CC3)nn12 [AZD-5153]
inhibition in vivo at 1 mg/kg [16]: 72%
IC50 [17]: 5 nM
IC50 [18]: 1600 nM

Cc1[nH]c(-c2cc(NS(C)(=O)=O)ccc2Oc2ccccc2)c2c1C(=O)CCC2
inhibition in vivo at 100 mg/kg [19]: 80%

[2H]C([2H])([2H])c1nnn(C)c1-c1cnc2c3ccc(C(C)(C)O)c(F)c3n([C@H](c3ccccc3)C3CCOCC3)c2c1
IC50 [20]: < 5 nM
inhibition in vivo at 1 mg/kg [21]: 103%

Cc1[nH]c(-c2ccccc2NC2CCCCC2F)cc1C(N)=O (stereo unspecified)
EC50 [15]: 433 nM

[2H]C([2H])([2H])c1nnn(C)c1-c1cnc2c3ccc(C(C)(C)O)cc3n([C@H](c3ccccc3)C3CCC(F)(F)CC3)c2c1
IC50 [20]: < 5 nM
inhibition in vivo at 1 mg/kg [21]: 93%

Cc1noc(C)c1-c1ccc2c(c1)C(c1ccccc1)N(CC1CCN(C)CC1)C(=O)N2 (stereo unspecified)
IC50 [13]: 31 nM

CCOc1cc(=O)n(C)cc1-c1cc(NC(=O)CCc2ccccc2)ccc1Oc1ccc(F)cc1F
IC50 [22]: 69 nM
IC50 [23]: 11 nM
EC50 [1]: 398 nM

CC(=O)N1c2ccc(-c3cnn([C@H]4CCNC[C@H]4F)c3)c(OCC3CCC3)c2CC[C@H]1C
IC50 [24]: < 100 nM
IC50 [25]: < 50 nM

Cc1sc2c(c1C)C(c1ccc(Cl)cc1)=N[C@H](CC(=O)OC1CCC(O)CC1)c1nnc(C)n1-2 (stereo partly specified)
Kd [12]: 1.3 nM

Cc1cc(N2C(=O)c3c(c(CO)nn3C3CC3)[C@H]2c2ccc(Cl)cc2)cn2c(C)nnc12
IC50 [6]: < 11 nM
IC50 [7]: 1400 nM
IC50 [8]: 9.4 nM

Cc1nnn(C)c1-c1cnc2c3ccc(C(C)(C)O)c(F)c3n([C@H](c3ccccc3)C3CCOCC3)c2c1
IC50 [20]: < 5 nM
inhibition in vivo at 5 mg/kg [26]: 100%

Cc1nnc2c(NC(C)C)nc(-c3nc4cnc(N5CCOC[C@H]5C)cc4n3C(C)CC3CC3)cn12 (stereo partly specified)
IC50 [27]: 9 nM

CCS(=O)(=O)Nc1ccc(Oc2ccc(F)cc2F)c(-c2cn(C)c(=O)c3[nH]c(C#CCOC)cc23)c1
Ki [28]: 1.6 nM
EC50 [15]: 48 nM
